Like-named read-outs stand apart in the source and are kept apart here. Marks after values point to notes of the source that are not given here. Where no end group is shown, it is not given here.
Key:
HT29 cells = experiment: Growth inhibition by peptide-cytochrome C conjugates (MTT); format: cell-based, human
Method: (§1) H1299 or HT29 cells (3×10^4 cells/well) are cultivated in 96-well plates for 48 hours at 37° C. in the complete culture medium RPMI with decreasing concentrations (200-3 μg/ml) of natural cytochrome C or cytochrome C conjugated with peptides added, and the culture is continued for 48 hours.
(§2) Table 25 gives the inhibition of growth of the cells by the […].

H1299 cells [1] = experiment: as above; format: cell-based, human
Method: as §1, §2

H1299 cells [2] = experiment: Penetration of peptide-cytochrome C conjugates (microscopy); format: cell-based, human; design: key: +++: intense; ++: positive; +: slightly positive; −: negative; conditions: 4 hours
Method: The penetration of the peptide-cytochrome C conjugates is evaluated with some conjugates prepared with peptides having a biotin on the N-terminal side. H1299 cells are cultivated in the presence of the different (biotinylated) peptide-cytochrome C conjugates at decreasing concentrations (100 to 25 μg/ml) in the culture medium for 4 hours at 37° C. At the end of the culture, the cells are washed three times with PBS, then fixed 15 minutes in ethanol at −20°. The penetration of the peptide-biotin-cytochrome C conjugate is evaluated after incubation for 60 minutes with some avidin coupled with peroxidase. The cells are then washed with PBS, and the activity of the peroxidase is indicated by diaminobenzidine in the presence of H2O2.
The penetration dependent on the concentration of conjugates in the culture medium is evaluated under the microscope by the intensity of the coloration expressed by crosses. Table 24 indicates the penetration of the peptide-cytochrome C conjugates in the cells.

[3] = ELISA fixation of biotinylated peptides on sensitized plates; format: binding; conditions: read-out: avidity (Kd), quantity of peptides necessary to obtain 50% fixation, Chondroitin A; Table 5
H1299 cells [4] = experiment: Internalization of covalent peptide-peroxidase conjugates; format: cell-based, human; conditions: Table 9; H1299; 0.2 μg/ml conjugate, 2 hours
Method: (§3) To evaluate more directly the penetration of the peptides, avoiding the avidin-peroxidase bias, some of the peptides in sequences SEQ ID NO: 25 to 48 were conjugated covalently with cysteine in the C-terminal position of the peptide to peroxidase. The peptides were coupled with peroxidase in the following way:
(§4) One mg of peroxidase activated with maleimide (Sigma) in 100 μl of sodium phosphate buffer, NaCl 0.15 M, EDTA 5 mM, had 1 mg of peptide added to it. After 2 hours at laboratory temperature, β-mercaptoethanol is added to a final concentration of 1.5 mM for 15 minutes. The uncoupled peptide is eliminated by centrifugation on ultrafiltration membranes (cut-off threshold=30,000 Daltons, Sartorius), followed by three washings in sodium phosphate buffer 0.1 M, pH 7.4 containing 0.15 M NaCl.
The H1299 cells are incubated for 2 hours with the conjugates at increasing concentrations of peptide-peroxidase in the culture medium, then washed with PBS. The cells are lysed and the quantity of peptide internalized is evaluated by the dosage of peroxidase in the lysate of the cells with reference to a curve established with peptide-peroxidase.
The quantity of peptide internalized (pg/10^3 cells), depending on the concentrations of conjugates in the culture medium, is shown in Table 8 below.
(§5) It appears that the higher the concentration of peptide-peroxidase conjugate in the culture medium, the more the quantity internalized increases. To compare the penetration of the conjugates by cell type, the cells from different lines were incubated with 0.2 μg/ml of peptide-peroxidase conjugate for 2 hours, and the quantity of peroxidase dosed in the lysates. Table 9 and Table 9B below give the results expressed in pg/10^3 cells. The quantity of each peptide internalized in the different lines generally varies only from single to double.

3T3 cells = experiment: Heparin inhibition of internalization of peptide-peroxidase conjugates; format: cell-based, mouse
Method: (§6) a) Heparin (50 μg/ml) was incubated with the cells for 1 hour before adding the peptide-peroxidase conjugates at 0.2 μg/ml for 2 hours. The cells were then lysed and the peroxidase dosed.
(§7) The quantity of heparin necessary to inhibit 50% penetration of the peptides coupled to peroxidase was evaluated with these two types of cells, by incubating the cells with the peptide-peroxidase conjugates with increasing concentrations of heparin. The results of inhibiting internalization of the peptides are expressed as the heparin concentration (μg/ml) in Table 2 below.

3T3 = experiment: Internalization of covalent peptide-peroxidase conjugates; format: cell-based, mouse; conditions: Table 9, 0.2 μg/ml conjugate, 2 hours
Method: as §3, §4, §5

[5] = ELISA fixation of biotinylated peptides on sensitized plates; format: binding; conditions: read-out: avidity (Kd), quantity of peptides necessary to obtain 50% fixation, Chondroitin B; Table 5
H1299 cells [6] = experiment: Internalization of biotinylated peptide/S-PO complexes; format: cell-based, human; conditions: peptide: S-PO complexes of 4:1, peptide concentration of 1 μg
Summary of the method: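 Biotinylated peptides precomplexed 15 min with streptavidin- or avidin-peroxidase at 25:1 or 4:1 peptide:conjugate molar ratio in PBS, diluted in complete medium and incubated with H1299 cells for 4 h. After washing and lysis, internalised peroxidase quantified with ortho-dianisidine/H2O2 at 450 nm against an S-PO standard curve, as pg per 10^4 cells.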

[7] = ELISA fixation of biotinylated peptides on sensitized plates; format: binding; conditions: read-out: avidity (Kd), quantity of peptides necessary to obtain 50% fixation, Heparin; Table 5
Method: The capacity of peptides SEQ ID NO: 1 to 21 to attach themselves to DNA and heparin is evaluated on ELISA plates sensitized with DNA or heparin. Dilutions of biotinylated peptides are deposited on the plates and their fixation is shown using streptavidin conjugated with peroxidase. […] The avidity of each of the peptides for DNA or heparin is evaluated by the quantity (×10^−6 M) of peptides necessary to obtain 50% fixation.

HeLa cells [8] = experiment: Heparin inhibition of internalization of peptide-peroxidase conjugates; format: cell-based, human
Method: as §6, §7

HeLa = experiment: Internalization of covalent peptide-peroxidase conjugates; format: cell-based, human; conditions: Table 9, 0.2 μg/ml conjugate, 2 hours
Method: as §3, §4, §5

[9] = ELISA fixation of biotinylated peptides on sensitized plates; format: binding; conditions: read-out: avidity (Kd), quantity of peptides necessary to obtain 50% fixation, Chondroitin C; Table 5
HH9 tumors = tested on: HH9 tumors; design: species or system nude mice; conditions: mouse, in vivo
Method: The nude mice received subcutaneous transplants of HH9 tumor cells as described above. On day 9 after the transplant, the mice received twice a week, by peritumoral injection, 100 μg of RNase, or 65 μg of peptide (HBP3)2 or 65 μg of peptide (HBP3)2+100 μg of RNase, or 100 μg of peptide conjugate (HBP3)2-RNase or HBP6-RNase conjugate. On day 26, the mice were killed and their tumors weighed.

[10] = tested on: Salmonella typhiTy2 (WHO); experiment: microbe, parasite or virus in culture; format: cell-based, S. typhi-Ty2; conditions: S. typhi-Ty2
Method: (§8) The gram-positive bacterial strains are: Enterococcus faecalis (ATCC 29212), and Staphylococcus aureus (ATCC 25923) and the gram-negative strains are: Escherichia coli (ATCC 25922), Pseudomonas aeruginosa (ATCC 27853) and Salmonella typhimurim (clinical isolate), Salmonella typhiTy2 (WHO). The bacteria are cultured with shaking all night at 37° C., then recultured at a dilution of 1:50 in some fresh Luria-Bertani (LB) medium for 2 hours. The bacterial concentration is adjusted to […], and 50 μl is distributed in 96-well plates with an equal volume of peptides diluted half and half (256-0.5 μg/ml) in LB medium. […] To determine the minimum bactericide concentration, 10 μl from each well is spread on gelose plates in LB medium.
(§9) The results are expressed as the peptide concentration in MBC (μM).

[11] = tested on: Staphylococcus aureus (ATCC 25923); experiment: microbe, parasite or virus in culture; format: cell-based; conditions: ATCC 25923
Method: as §8, §9

[12] = tested on: Escherichia coli (ATCC 25922); experiment: microbe, parasite or virus in culture; format: cell-based; conditions: ATCC 25922; read-out: MBC
Method: as §8, §9

[13] = tested on: Enterococcus faecalis (ATCC 29212); experiment: microbe, parasite or virus in culture; format: cell-based; conditions: ATCC 29212
Method: as §8, §9

[14] = tested on: Pseudomonas aeruginosa (ATCC 27853); experiment: microbe, parasite or virus in culture; format: cell-based; conditions: ATCC 27853
Method: as §8, §9

[15] = tested on: gram-positive and gram-negative bacterial strains; experiment: Antibacterial activity of cationic peptides, summary over strains; format: cell-based; conditions: summary of Table 29
Method: as §8
However, when peptide HPB13 (SEQ ID NO: 38) is coupled with peptide SEQ ID NO: 24, it enhances its activity by a factor of 50 to 100 (peptide SEQ ID NO: 45). […] None these peptides are active on gram-positive bacteria.

HeLa cells [16] = experiment: Penetration of peroxidase transported by peptide-IgG anti-PO transporter; format: cell-based, human; conditions: via the transporter [peptide-IgG anti-PO]
Method: Two mg of specific monoclonal IgG antibody of peroxidase or their fragment F(ab′)2 in 1 ml of potassium phosphate buffer 0.1 M, pH 7.4 are added to 110 μg of SMCC [succinimidyl 4-(N-maleimidomethyl)cyclohexane-1-carboxylate] in 11 μl of dimethylsulfoxide. The solution is incubated for 45 minutes at laboratory temperature. The excess reagent is eliminated by centrifugation on ultrafiltration membranes (cutoff threshold =10,000 Da, Vivascience), followed by three washings in sodium phosphate buffer 10 mM, pH 7 containing 0.5 M of NaCl and 5 mM of EDTA.
The peptide is then coupled in a molar ratio of 6 peptides to 1 IgG or 1 F(ab′)2 in the sodium phosphate buffer 10 mM, pH 7, containing 0.5 M of NaCl and 5 mM of EDTA for three hours at laboratory temperature. Then, the excess uncoupled peptide is totally eliminated by centrifugation on ultrafiltration membranes, as in the preceding step. These transporters [peptide-IgG anti-PO] are added to the peroxidase or the biotinylated peroxidase in some 0.5 M NaCl buffer. The solution is incubated for 1 hour at laboratory temperature. The molar ratio of this reaction is 2 PO/1 IgG or F(ab′)2. […]
To measure the quantity of PO internalized, the cells are trypsinized, transferred into microtubes and counted. […]

## Natural cytochrome C: hemoprotein, single polypeptide chain of 104 amino acids
HT29 cells; 12.5 μg/ml
  % inhibition of growth: 0%
HT29 cells; 25 μg/ml
  % inhibition of growth: 0%
HT29 cells; 50 μg/ml
  % inhibition of growth: 10%
HT29 cells; 100 μg/ml
  % inhibition of growth: 19%
HT29 cells; 200 μg/ml
  % inhibition of growth: 12* %
H1299 cells [1]; 3 μg/ml
  % inhibition of growth: 0%
H1299 cells [1]; 6 μg/ml
  % inhibition of growth: 0%
H1299 cells [1]; 12.5 μg/ml
  % inhibition of growth: 0%
H1299 cells [1]; 25 μg/ml
  % inhibition of growth: 0%
H1299 cells [1]; 50 μg/ml
  % inhibition of growth: 0%
H1299 cells [1]; 100 μg/ml
  % inhibition of growth: 0* %
H1299 cells [2]; 25 μg/ml
  penetration, intensity of the coloration: −
H1299 cells [2]; 50 μg/ml
  penetration, intensity of the coloration: −
H1299 cells [2]; 100 μg/ml
  penetration, intensity of the coloration: −*

## GRPRESGKKRKRKRLKP [SEQ ID NO: 21]
[3]
  Kd: 135 nM
H1299 cells [4]
  Internalization of Peptide-peroxidase: 21.9 pg/10^3 cells
3T3 cells
  heparin concentration necessary to inhibit 50% penetration of the peptides coupled to peroxidase: 4.1 µg/mL
3T3
  Internalization of Peptide-peroxidase: 83.7 pg/10^3 cells
[5]
  Kd: 110 nM
H1299 cells [6]
  S-PO internalized: 1680 pg/10^4 cells
[7]
  Kd: 16 nM
HeLa cells [8]
  heparin concentration necessary to inhibit 50% penetration of the peptides coupled to peroxidase: 2.3 µg/mL
HeLa
  Internalization of Peptide-peroxidase: 13.2 pg/10^3 cells
[9]
  Kd: 12 nM

## SERKKRRRESRKKRRRES [SEQ ID NO: 26]
HH9 tumors
  Inhibition of the growth of the tumors: 10%

## VKRGLKLVKRGLKLVKRGLKL [SEQ ID NO: 3]
[3]
  Kd: 37 nM
H1299 cells [4]
  Internalization of Peptide-peroxidase: 17.7 pg/10^3 cells
3T3
  Internalization of Peptide-peroxidase: 24.6 pg/10^3 cells
[10]
  MBC: 1.65 µM
[5]
  Kd: 41 nM
H1299 cells [6]
  S-PO internalized: 642 pg/10^4 cells
[11]
  MBC: >106 µM
[12]
  MBC: 13.25 µM
[13]
  MBC: >106 µM
[14]
  MBC: 26.5 µM
[15]
  bactericide / anti-microbial activity: has bactericide activity
[7]
  Kd: 41 nM
HeLa
  Internalization of Peptide-peroxidase: 11.2 pg/10^3 cells
[9]
  Kd: 35 nM

B1: Peroxidase (PO): peroxidase transported by the transporter [peptide-IgG anti-PO] (protein)
chain: QLTPTFYDNSCPNVSNIVRDTIVNELRSDPRIAASILRLHFHDCFVNGCDASILLDNTTSFRTEKDAFGNANSARGFPVIDRMKAAVESACPRTVSCADLLTIAAQQSVTLAGGPSWRVPLGRRDSLQAFLDLANANLPAPFFTLPQLKDSFRNVGLNRSSDLVALSGGHTFGKNQCRFIMDRLYNFSNTGLPDPTLNTTYLQTLRGLCPLNGNLSALVDFDLRTPTIFDNKYYVNLEEQKGLIQSDQELFSSPNATDTIPLVRSFANSTQTFFNAFVEAMDRMGNITPLTGTQGQIRLNCRVVNSNS
HeLa cells [16]
  Quantity of molecules internalized: 2100 pg/10^4 cells

B2: Biotinylated PO: biotinylated peroxidase transported by the transporter [peptide-IgG anti-PO] (protein)
chain: B1 chain
HeLa cells [16]
  Quantity of molecules internalized: 1700 pg/10^4 cells

Source: US8003595B2, “Amino acid sequences facilitating penetration of a substance of interest into cells and/or cell nuclei” (Cellectis, priority 2000, dated 2011)
